Data from patent publication US5541161A, “Stabilized sulfonate, sulfate, phosphonate and phosphate derivatives of hirudin” (Merrell Pharmaceuticals Inc., priority 1993, dated 1996).
pIC50: −log10 of the molar value. Read-outs that look alike come from different tables or passages of the source. Numbered stars: 1 amine (or outer) side, 2 acyl side, 3 side chain; on linkers, the order of the positions; unused ones are H or OH. Suc = O=C(CCC(=O)[*:2])[*:1]; Pnh(SO3) = not defined here

Biological target: thrombin (Homo sapiens, UniProt P00734)
Test: Fibrin-Clot Assay
Format: biochemical
[1] = read-out: IC50 Fibrin-Clot Assay
[2] = read-out: IC50 Fibrin-Clot Assay (class symbol)

Row | Compound | pIC50 [1] | pIC50 [2]
1 | Suc-Tyr-Glu-Pro-Ile-Pro-Glu-Glu-Phe(pNHSO3 H)-D-Glu-OH [Example 3] | 6.92 | –
2 | CC[C@H](C)[C@H](NC(=O)[C@@H]1CCCN1C(=O)[C@H](COS(=O)(=O)O)NC(=O)[C@H](Cc1ccc(O)cc1)NC(=O)CCC(=O)O)C(=O)N1CCC[C@H]1C(=O)N[C@@H](COS(=O)(=O)O)C(=O)N[C@@H](COS(=O)(=O)O)C(=O)N[C@@H](C)C(=O)N[C@@H](CC1CCCCC1)C(=O)N[C@@H](COS(=O)(=O)O)C(=O)O [Example 8, Suc-Tyr-Ser(SO3 H)-Pro-Ile-Pro-Ser(SO3 H)-Ser(SO3 H)-Ala-Cha-Ser(SO3 H)-OH] | 6.68 | > 5.30
3 | CC[C@H](C)[C@H](NC(=O)[C@@H]1CCCN1C(=O)[C@H](CCC(=O)O)NC(=O)[C@H](Cc1ccc(NS(=O)(=O)O)cc1)NC(=O)CCC(=O)O)C(=O)N1CCC[C@H]1C(=O)N[C@@H](CCC(=O)O)C(=O)N[C@@H](CCC(=O)O)C(=O)N[C@@H](C)C(=O)N[C@@H](CC1CCCCC1)C(=O)N[C@H](CCC(=O)O)C(=O)O [Example 4, Suc-Phe(pNHSO3 H)-Glu-Pro-Ile-Pro-Glu-Glu-Ala-Cha-D-Glu-OH] | 4.89 | > 4.60
4 | CC[C@H](C)[C@H](NC(=O)[C@@H]1CCCN1C(=O)[C@H](CCC(=O)O)NC(=O)[C@H](Cc1ccc(OS(=O)(=O)O)cc1)NC(=O)CCC(=O)O)C(=O)N1CCC[C@H]1C(=O)N[C@@H](CCC(=O)O)C(=O)N[C@@H](CCC(=O)O)C(=O)N[C@@H](C)C(=O)N[C@@H](Cc1ccc(NS(=O)(=O)O)cc1)C(=O)N[C@H](CCC(=O)O)C(=O)O [Example 2, Suc-TVr(SO3 H)-Glu-Pro-Ile-Pro-Glu-Glu-Ala-Phe(pNHSO3 H)-D-Glu-OH] | 4.82 | > 4.60
5 | Suc-Tyr-Pro-Ile-Pro-Glu-Glu-Ala-Pnh(SO3)-D-Glu-OH (Suc-YPIPEEA-{Pnh(SO3)-dE-OH}; reading uncertain; also: printed as Suc-Tyr-Pro-Ile-Pro-Glu-Glu-Ala-Pnh(SO3)-D-Glu-OH) [Example 1] | 5.60 | > 5.30
6 | Suc-Tyr(SO3 H)-Glu-Pro-Ile-Pro-Glu-Glu-Ala-Cha-D-Glu-OH [Example 5] | 5.77 | > 5.30
